Source: US7332612B2 (Teva Pharmaceutical Industries Ltd., priority 2001, dated 2008)

Description: To obtain Form II in high chemical purity the starting material should also be chemically pure.

SMILES: CCCCc1nc(Cl)c(CO)n1Cc1ccc(-c2ccccc2-c2nnn[nH]2)cc1.[K] [losartan potassium]
- solubility in methanol (methanol, complete dissolution at room temperature): highly soluble
- solubility in xylene (xylene, either crystalline or amorphous): low solubility
